Source: patent US9505781B2, “Compositions comprising thienopyrimidine and thienopyridine compounds and methods of use thereof” (The Regents of the University of Michigan, priority 2013, dated 2016)

Biological target: T1, menin-MLL interaction (Homo sapiens, UniProt O00255)
T1 sequence (O00255 1-610): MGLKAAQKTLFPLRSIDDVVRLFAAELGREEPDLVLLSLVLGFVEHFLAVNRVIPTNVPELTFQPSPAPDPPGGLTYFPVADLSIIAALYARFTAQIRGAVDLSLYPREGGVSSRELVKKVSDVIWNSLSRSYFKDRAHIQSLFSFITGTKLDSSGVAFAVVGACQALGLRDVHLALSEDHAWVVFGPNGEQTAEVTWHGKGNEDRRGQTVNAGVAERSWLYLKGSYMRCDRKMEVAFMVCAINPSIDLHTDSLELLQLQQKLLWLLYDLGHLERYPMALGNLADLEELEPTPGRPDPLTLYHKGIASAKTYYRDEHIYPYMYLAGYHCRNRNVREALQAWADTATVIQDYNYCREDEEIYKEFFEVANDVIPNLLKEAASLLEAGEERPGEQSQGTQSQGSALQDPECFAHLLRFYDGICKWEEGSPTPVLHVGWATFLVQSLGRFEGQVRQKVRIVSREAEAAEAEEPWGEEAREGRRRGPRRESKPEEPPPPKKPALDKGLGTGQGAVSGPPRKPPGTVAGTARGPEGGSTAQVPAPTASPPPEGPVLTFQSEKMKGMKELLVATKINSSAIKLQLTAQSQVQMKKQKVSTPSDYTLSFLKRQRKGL
Test: biochemical
Description: Compounds that inhibit the interaction decrease the fluorescence anisotropy which is being used as a read-out for compound screening and for IC50 determination.

Row | Structure (SMILES) | IC50
1 | Cc1c(CN2CCC(Nc3ncnc4sc(CC(F)(F)F)cc34)CC2)ccc2c1cc(C#N)n2CCN1CCN[C@@H](C)C1 [Compound 367] | < 100 nM
2 | CN1CCN(Cc2ccc(CN3CCC(Nc4ncnc5sc(CC(F)(F)F)cc45)CC3)cc2)CC1 [Compound 143] | 500 to 2000 nM
3 | CN1CCN(Cc2ccc(CN3CCC(CNc4ncnc5sc(CC(F)(F)F)cc45)CC3)cc2)CC1 [Compound 267] | 500 to 2000 nM
4 | CCOc1c(CN2CCC(Nc3ncnc4sc(CC(F)(F)F)cc34)CC2)ccc2c1cc(C#N)n2CC(N)=O [Compound 409] | 100 to 500 nM
5 | NS(=O)(=O)c1ccc(CN2CCC(Nc3ncnc4sc(CC(F)(F)F)cc34)CC2)c(Cl)c1 [Compound 142] | 500 to 2000 nM
6 | O=CN1CCCC1CN[C@H]1CN(Cc2ccccc2)CC[C@@H]1Nc1ncnc2sc(CC(F)(F)F)cc12 (stereo partly shown) [Compound 170] | 100 to 500 nM
7 | FC(F)(F)Cc1cc2c(N(NCc3ccccc3)C3CCN(Cc4ccccc4)CC3)ncnc2s1 [Compound 124] | 100 to 500 nM
8 | N#Cc1cc2cc(CN3CCC(Nc4ncnc5sc(CC(F)(F)F)cc45)CC3)ccc2n1Cc1c[nH]nn1 [Compound 195] | < 100 nM
9 | CCc1c(CN2CCC(Nc3ncnc4sc(CC(F)(F)F)cc34)CC2)ccc2[nH]c(C#N)cc12 [Compound 295] | < 100 nM
10 | Cc1nnc(Cn2c(C#N)cc3c(C)c(CN4CCC(Nc5ncnc6sc(CC(F)(F)F)cc56)CC4)ccc32)s1 [Compound 322] | < 100 nM
11 | N#Cc1cc2cc(CN3CCC(Nc4ncnc5sc(CC(F)(F)F)cc45)CC3)ccc2n1C[C@@H](O)CO [Compound 187] | < 100 nM
12 | Cc1cc(CN2CCC(Nc3ncnc4sc(CC(F)(F)F)cc34)CC2)cc2cc(C#N)[nH]c12 [Compound 410] | 100 to 500 nM
13 | CS(=O)(=O)c1cc2cc(CN3CCC(Nc4ncnc5sc(CC(F)(F)F)cc45)CC3)ccc2[nH]1 [Compound 236] | 100 to 500 nM
14 | Cc1cc(Cn2c(C#N)cc3c(C)c(CN4CCC(Nc5ncnc6sc(CC(F)(F)F)cc56)CC4)ccc32)[nH]n1 [Compound 365] | < 100 nM
15 | COc1cc2c(cc1CN1CCC(Nc3ncnc4sc(CC(F)(F)F)cc34)CC1)cc(C#N)n2Cc1cn[nH]c1 [Compound 390] | < 100 nM
16 | CN(C)CCS(=O)(=O)Nc1ccc(CC(=O)N2CCN(c3ncnc4sc(CC(F)(F)F)cc34)CC2)cc1 [Compound 59] | < 100 nM
17 | Cc1c(CN2CCC(Nc3ncnc4sc(CC(F)(F)F)cc34)CC2)ccc2c1cc(C#N)n2CCN1CCN(C(=O)CC2CCCCC2)CC1 [Compound 343] | < 100 nM
18 | CC(C)OC(CO)Cn1c(C#N)cc2cc(CN3CCC(Nc4ncnc5sc(CC(F)(F)F)cc45)CC3)ccc21 (stereo not shown) [Compound 292] | < 100 nM
19 | Cc1c(CN2CCC(Nc3ncnc4sc(CC(F)(F)F)cc34)CC2)ccc2c1cc(C#N)n2CC(O)(CO)CCn1ccnn1 (stereo not shown) [Compound 373] | < 100 nM
20 | COc1c(CN2CCC(Nc3ncnc4sc(CC(F)(F)F)cc34)CC2)ccc2c1cc(C#N)n2CC(N)=O [Compound 193] | < 100 nM
21 | Cc1c(CN2CCC(Nc3ncnc4sc(CC(F)(F)F)cc34)CC2)ccc2c1cc(C#N)n2CC(O)(CO)CC1CCCCC1 (stereo not shown) [Compound 348] | < 100 nM
22 | Cc1c(CN2CCC(Nc3ncnc4sc(CC(F)(F)F)cc34)CC2)ccc2c1cc(C#N)n2Cc1nccs1 [Compound 326] | < 100 nM
23 | CCCCC(O)(CO)Cn1c(C#N)cc2c(C)c(CN3CCC(Nc4ncnc5sc(CC(F)(F)F)cc45)CC3)ccc21 (stereo not shown) [Compound 338] | < 100 nM
24 | Cc1c(CN2CCC(Nc3ncnc4sc(CC(F)(F)F)cc34)CC2)ccc2c1cc(C#N)n2CCN1CCOC(CO)C1 (stereo not shown) [Compound 362] | < 100 nM
25 | CCCc1cc2c(NC3CCN(Cc4ccccc4C)CC3)ncnc2s1 [Compound 153] | 500 to 2000 nM
26 | N#Cc1cc2cc(CN3CCC(Nc4ncnc5sc(CC(F)(F)F)cc45)CC3)ccc2n1CCn1ccnn1 [Compound 207] | < 100 nM
27 | O=C1CCc2cc(CN3CCC(Nc4ncnc5sc(CC(F)(F)F)cc45)CC3)ccc2N1 [Compound 136] | 500 to 2000 nM
28 | CO[C@H](CO)Cn1c(C#N)cc2cc(CN3CCC(Nc4ncnc5sc(CC(F)(F)F)cc45)CC3)ccc21 [Compound 191] | < 100 nM
